Data on one compound can be found in patent US20220072075A1, “METHOD FOR PRODUCING NATURAL ANTIMICROBIAL SUBSTANCE AND ANTIMICROBIAL COMPOSITION COMPRISING NATURAL ANTIMICROBIAL SUBSTANCE PRODUCED BY THE SAME” (MY CO.,LTD, priority 2020, published 2022).

This assay concerns Staphylococcus aureus. Nature of the assay: Antimicrobial Efficacy Test 4: elimination of Staphylococcus aureus, identification using a mass spectrometer. The format is cell-based. Conditions: substance added as named (70% ethanol, Febreze). The method, then: In the present disclosure, “natural antimicrobial substance (n %)” means that the natural antimicrobial substance of the present disclosure is dissolved in multi-photocatalyst water or hypochlorous acid water (pH 5) at a concentration of n %. FIGS. 4 to 9 show the data obtained by identifying Staphylococcus aureus and Staphylococcus aureus plus specific substance using a mass spectrometer.

Turning to `CCO` [70% ethanol, ethanol], the “elimination of Staphylococcus aureus (mass spectrum / bacterial identification)” value is recorded as “not eliminated”.
